In ChEMBL document CHEMBL1641539 (Bioorg Med Chem Lett, 2011):

How the values were obtained:
[1] = target: T1, Mitogen-activated protein kinase 1 (Homo sapiens, UniProt P28482); test: Inhibition of recombinant ERK2 after 60 mins by TR-FRET assay
[2] = target: Cyclin-dependent kinase 1/cyclin B (Homo sapiens) (UniProt P06493+P14635+Q8WWL7+O95067); test: Inhibition of CDK1/cyclin B at 10 uM after 60 mins by TR-FRET assay; assay type: protein-complex assay
[3] = target: Protein kinase C beta type (Homo sapiens) (UniProt P05771); test: Inhibition of PRKCB1 at 10 uM after 60 mins by TR-FRET assay
Protein kinase C beta type (Homo sapiens), sequence (P05771 2-671 limits assumed): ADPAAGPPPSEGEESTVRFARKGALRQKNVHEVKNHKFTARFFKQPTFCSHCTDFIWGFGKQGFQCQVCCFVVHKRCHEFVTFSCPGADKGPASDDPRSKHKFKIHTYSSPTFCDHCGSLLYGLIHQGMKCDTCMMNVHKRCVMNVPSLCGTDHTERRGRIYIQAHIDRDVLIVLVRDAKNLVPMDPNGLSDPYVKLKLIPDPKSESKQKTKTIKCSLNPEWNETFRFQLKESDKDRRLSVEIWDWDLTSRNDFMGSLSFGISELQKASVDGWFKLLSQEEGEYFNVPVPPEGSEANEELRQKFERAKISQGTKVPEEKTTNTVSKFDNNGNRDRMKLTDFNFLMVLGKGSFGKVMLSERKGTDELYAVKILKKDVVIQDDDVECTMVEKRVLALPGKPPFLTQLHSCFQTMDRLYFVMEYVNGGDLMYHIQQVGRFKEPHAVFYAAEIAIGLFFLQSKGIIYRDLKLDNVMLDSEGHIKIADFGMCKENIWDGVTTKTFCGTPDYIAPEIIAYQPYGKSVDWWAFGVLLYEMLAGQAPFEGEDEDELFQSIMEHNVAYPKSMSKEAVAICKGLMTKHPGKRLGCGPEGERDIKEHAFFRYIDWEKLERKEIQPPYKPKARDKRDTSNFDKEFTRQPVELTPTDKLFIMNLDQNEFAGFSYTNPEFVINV

[4] = target: Cyclin-dependent kinase 5/CDK5 activator 1 (Homo sapiens) (UniProt Q00535+Q15078); test: Inhibition of CDK5/p25 at 10 uM after 60 mins by TR-FRET assay; assay type: protein-complex assay
[5] = target: Platelet-derived growth factor receptor alpha (Homo sapiens) (UniProt P16234); test: Inhibition of PDGFRA at 10 uM after 60 mins by TR-FRET assay
[6] = target: Tyrosine-protein kinase Lck (Homo sapiens) (UniProt P06239); test: Inhibition of LCK at 10 uM after 60 mins by TR-FRET assay
Tyrosine-protein kinase Lck (Homo sapiens), sequence (P06239 2-509 limits assumed): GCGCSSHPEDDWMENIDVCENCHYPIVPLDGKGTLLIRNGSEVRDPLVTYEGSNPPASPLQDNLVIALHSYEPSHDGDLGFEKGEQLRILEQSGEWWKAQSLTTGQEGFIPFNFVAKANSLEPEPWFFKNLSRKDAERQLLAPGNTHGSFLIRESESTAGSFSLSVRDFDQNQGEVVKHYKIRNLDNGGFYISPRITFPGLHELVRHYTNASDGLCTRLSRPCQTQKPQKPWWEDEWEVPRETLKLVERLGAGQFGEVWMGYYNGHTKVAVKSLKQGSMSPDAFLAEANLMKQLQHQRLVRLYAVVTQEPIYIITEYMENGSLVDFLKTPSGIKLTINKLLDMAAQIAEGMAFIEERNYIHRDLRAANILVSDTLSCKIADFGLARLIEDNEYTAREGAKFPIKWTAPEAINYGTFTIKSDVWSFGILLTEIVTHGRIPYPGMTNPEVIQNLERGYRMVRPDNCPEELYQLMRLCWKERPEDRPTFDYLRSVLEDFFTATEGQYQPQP

[7] = system: RAF proto-oncogene serine/threonine-protein kinase (Homo sapiens), P04049 [Y340D,Y341D]; test: Inhibition of RAF1 Y340D, Y341D mutant at 10 uM after 60 mins by TR-FRET assay
RAF proto-oncogene serine/threonine-protein kinase (Homo sapiens), P04049 [Y340D,Y341D], sequence (P04049 whole entry Y340D/Y341D): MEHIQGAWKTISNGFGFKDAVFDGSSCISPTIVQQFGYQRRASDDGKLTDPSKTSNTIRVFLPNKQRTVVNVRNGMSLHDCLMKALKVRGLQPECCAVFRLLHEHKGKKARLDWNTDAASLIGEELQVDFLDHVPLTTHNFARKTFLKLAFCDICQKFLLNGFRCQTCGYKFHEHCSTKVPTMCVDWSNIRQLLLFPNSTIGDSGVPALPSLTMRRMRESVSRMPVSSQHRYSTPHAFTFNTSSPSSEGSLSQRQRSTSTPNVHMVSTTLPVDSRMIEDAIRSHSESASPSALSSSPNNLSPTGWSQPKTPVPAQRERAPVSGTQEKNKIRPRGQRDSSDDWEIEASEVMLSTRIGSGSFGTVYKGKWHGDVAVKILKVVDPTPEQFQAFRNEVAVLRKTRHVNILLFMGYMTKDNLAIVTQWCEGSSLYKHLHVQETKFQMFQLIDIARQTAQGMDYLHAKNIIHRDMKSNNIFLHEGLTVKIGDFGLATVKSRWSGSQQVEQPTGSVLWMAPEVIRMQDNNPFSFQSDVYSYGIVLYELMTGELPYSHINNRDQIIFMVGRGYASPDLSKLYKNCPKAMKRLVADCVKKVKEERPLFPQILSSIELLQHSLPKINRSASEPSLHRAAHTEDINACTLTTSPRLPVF

[8] = target: Receptor-type tyrosine-protein kinase FLT3 (Homo sapiens) (UniProt P36888); test: Inhibition of FLT3 at 10 uM after 60 mins by TR-FRET assay
[9] = target: Mitogen-activated protein kinase 9 (Homo sapiens, UniProt P45984); test: Inhibition of recombinant JNK2 after 60 mins by TR-FRET assay
Mitogen-activated protein kinase 9, sequence (P45984 whole entry): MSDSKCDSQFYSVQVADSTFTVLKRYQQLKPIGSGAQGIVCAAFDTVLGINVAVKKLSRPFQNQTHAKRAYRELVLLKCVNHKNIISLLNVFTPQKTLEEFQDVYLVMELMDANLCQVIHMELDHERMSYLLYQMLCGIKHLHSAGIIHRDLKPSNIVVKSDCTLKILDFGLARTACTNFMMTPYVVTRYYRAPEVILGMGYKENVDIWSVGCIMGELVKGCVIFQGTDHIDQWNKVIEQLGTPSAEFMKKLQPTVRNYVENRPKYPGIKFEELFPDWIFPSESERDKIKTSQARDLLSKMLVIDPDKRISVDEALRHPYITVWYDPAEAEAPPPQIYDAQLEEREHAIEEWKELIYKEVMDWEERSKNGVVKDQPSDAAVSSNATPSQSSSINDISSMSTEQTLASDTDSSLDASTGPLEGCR

[10] = target: Calcium/calmodulin-dependent protein kinase type II subunit alpha (Homo sapiens) (UniProt Q9UQM7); test: Inhibition of CAMK2A at 10 uM after 60 mins by TR-FRET assay
[11] = target: Serine/threonine-protein kinase PLK3 (Homo sapiens) (UniProt Q9H4B4); test: Inhibition of PLK3 at 10 uM after 60 mins by TR-FRET assay
Serine/threonine-protein kinase PLK3 (Homo sapiens), sequence (Q9H4B4 whole entry, looked up): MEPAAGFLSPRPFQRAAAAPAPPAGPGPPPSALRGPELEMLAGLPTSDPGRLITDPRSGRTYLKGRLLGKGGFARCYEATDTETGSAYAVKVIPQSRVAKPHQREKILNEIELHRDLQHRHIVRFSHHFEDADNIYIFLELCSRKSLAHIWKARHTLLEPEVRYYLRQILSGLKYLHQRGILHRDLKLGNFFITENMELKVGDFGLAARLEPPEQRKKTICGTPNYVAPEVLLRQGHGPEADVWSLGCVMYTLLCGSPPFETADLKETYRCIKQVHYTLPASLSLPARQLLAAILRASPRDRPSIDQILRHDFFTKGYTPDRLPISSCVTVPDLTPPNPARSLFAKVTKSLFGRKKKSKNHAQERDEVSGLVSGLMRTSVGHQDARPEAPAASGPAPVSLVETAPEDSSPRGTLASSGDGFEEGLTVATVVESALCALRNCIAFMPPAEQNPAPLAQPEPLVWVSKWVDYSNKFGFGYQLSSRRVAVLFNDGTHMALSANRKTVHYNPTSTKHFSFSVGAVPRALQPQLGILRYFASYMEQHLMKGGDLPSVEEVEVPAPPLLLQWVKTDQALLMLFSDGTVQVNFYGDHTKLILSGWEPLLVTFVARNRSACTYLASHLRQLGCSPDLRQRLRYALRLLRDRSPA

[12] = target: RAC-alpha serine/threonine-protein kinase (Homo sapiens) (UniProt P31749); test: Inhibition of AKT1 at 10 uM after 60 mins by TR-FRET assay
[13] = target: T2, Serine/threonine-protein kinase 3 (Homo sapiens) (UniProt Q13188); test: Inhibition of STK3 at 10 uM after 60 mins by TR-FRET assay
T2 sequence (whole entry): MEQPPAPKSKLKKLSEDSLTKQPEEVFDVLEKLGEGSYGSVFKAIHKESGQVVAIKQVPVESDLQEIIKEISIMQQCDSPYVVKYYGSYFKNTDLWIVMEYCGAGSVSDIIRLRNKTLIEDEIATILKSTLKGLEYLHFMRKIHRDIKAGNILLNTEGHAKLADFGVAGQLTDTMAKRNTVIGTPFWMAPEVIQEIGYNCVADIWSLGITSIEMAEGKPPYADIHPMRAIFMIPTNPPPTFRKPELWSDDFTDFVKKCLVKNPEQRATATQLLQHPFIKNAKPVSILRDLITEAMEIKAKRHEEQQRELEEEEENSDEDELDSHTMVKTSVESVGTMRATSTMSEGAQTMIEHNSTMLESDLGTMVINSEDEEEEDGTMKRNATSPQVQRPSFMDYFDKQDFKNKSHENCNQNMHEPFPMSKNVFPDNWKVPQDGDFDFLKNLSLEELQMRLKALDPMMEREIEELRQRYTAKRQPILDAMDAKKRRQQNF

[14] = target: Dual specificity protein kinase CLK1 (Homo sapiens) (UniProt P49759); test: Inhibition of CLK1 at 10 uM after 60 mins by TR-FRET assay
[15] = target: Mitogen-activated protein kinase 10 (Homo sapiens, UniProt P53779); test: Inhibition of MAPK10 at 10 uM after 60 mins by TR-FRET assay
[16] = target: Tyrosine-protein kinase ABL1 (Homo sapiens) (UniProt P00519); test: Inhibition of ABL1 at 10 uM after 60 mins by TR-FRET assay
[17] = target: Cyclin-dependent kinase 2/cyclin A (Homo sapiens) (UniProt P24941+P20248+P78396); test: Inhibition of CDK2/cyclin A at 10 uM after 60 mins by TR-FRET assay; assay type: protein-complex assay
[18] = target: Serine/threonine-protein kinase PLK2 (Homo sapiens) (UniProt Q9NYY3); test: Inhibition of PLK2 at 10 uM after 60 mins by TR-FRET assay
[19] = target: Leucine-rich repeat serine/threonine-protein kinase 2 (Homo sapiens) (UniProt Q5S007); test: Inhibition of LRRK2 at 10 uM after 60 mins by TR-FRET assay
[20] = target: Serine/threonine-protein kinase PLK1 (Homo sapiens) (UniProt P53350); test: Inhibition of PLK1 at 10 uM after 60 mins by TR-FRET assay
[21] = target: Tyrosine-protein kinase SYK (Homo sapiens) (UniProt P43405); test: Inhibition of SYK at 10 uM after 60 mins by TR-FRET assay
[22] = target: T1, Mitogen-activated protein kinase 1; test: Inhibition of MAPK1 at 10 uM after 60 mins by TR-FRET assay
[23] = target: Proto-oncogene tyrosine-protein kinase receptor Ret (Homo sapiens) (UniProt P07949); test: Inhibition of RET at 10 uM after 60 mins by TR-FRET assay
[24] = target: Mitogen-activated protein kinase 14 (Homo sapiens, UniProt Q16539); test: Inhibition of recombinant p38alpha after 60 mins by TR-FRET assay
Mitogen-activated protein kinase 14, sequence (Q16539 whole entry): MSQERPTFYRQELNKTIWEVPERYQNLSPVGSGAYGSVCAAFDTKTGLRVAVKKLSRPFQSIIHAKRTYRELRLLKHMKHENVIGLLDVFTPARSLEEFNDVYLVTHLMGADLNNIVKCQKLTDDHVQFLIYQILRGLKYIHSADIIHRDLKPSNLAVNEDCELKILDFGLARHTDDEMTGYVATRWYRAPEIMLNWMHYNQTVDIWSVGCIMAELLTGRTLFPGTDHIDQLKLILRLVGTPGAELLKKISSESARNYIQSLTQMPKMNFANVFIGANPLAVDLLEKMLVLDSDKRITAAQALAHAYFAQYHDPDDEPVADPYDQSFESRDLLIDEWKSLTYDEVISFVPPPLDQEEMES

[25] = target: Macrophage colony-stimulating factor 1 receptor (Homo sapiens) (UniProt P07333); test: Inhibition of CSF1R at 10 uM after 60 mins by TR-FRET assay
Macrophage colony-stimulating factor 1 receptor (Homo sapiens), sequence (P07333 whole entry): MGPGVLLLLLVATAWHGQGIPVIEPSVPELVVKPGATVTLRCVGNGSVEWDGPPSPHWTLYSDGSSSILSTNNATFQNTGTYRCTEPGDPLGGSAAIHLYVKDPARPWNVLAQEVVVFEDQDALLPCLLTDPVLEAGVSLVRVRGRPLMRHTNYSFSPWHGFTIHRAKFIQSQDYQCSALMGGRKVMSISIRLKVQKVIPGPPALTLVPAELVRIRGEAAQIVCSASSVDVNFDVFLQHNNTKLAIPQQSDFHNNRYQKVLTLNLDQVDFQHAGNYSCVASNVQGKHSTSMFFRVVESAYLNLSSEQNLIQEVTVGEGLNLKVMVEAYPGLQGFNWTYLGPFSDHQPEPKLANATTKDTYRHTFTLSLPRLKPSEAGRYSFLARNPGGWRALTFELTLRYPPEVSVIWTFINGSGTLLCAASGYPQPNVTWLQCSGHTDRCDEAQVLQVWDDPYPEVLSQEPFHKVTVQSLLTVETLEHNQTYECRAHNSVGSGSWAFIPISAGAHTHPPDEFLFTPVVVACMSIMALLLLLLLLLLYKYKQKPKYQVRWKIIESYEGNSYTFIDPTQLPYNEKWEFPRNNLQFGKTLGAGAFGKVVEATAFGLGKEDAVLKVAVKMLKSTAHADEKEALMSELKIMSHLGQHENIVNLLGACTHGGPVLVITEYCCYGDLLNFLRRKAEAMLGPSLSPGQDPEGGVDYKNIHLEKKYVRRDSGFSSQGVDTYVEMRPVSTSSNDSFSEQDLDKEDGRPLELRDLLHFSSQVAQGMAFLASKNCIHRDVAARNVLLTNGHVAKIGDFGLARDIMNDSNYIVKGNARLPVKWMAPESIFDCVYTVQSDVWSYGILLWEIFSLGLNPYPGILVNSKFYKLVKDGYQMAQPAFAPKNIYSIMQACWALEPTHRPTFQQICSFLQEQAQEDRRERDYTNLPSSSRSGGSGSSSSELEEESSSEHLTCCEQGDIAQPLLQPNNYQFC

[26] = target: Serine/threonine-protein kinase MARK2 (Homo sapiens) (UniProt Q7KZI7); test: Inhibition of MARK2 at 10 uM after 60 mins by TR-FRET assay
[27] = target: Receptor-interacting serine/threonine-protein kinase 2 (Homo sapiens) (UniProt O43353); test: Inhibition of RIPK2 at 10 uM after 60 mins by TR-FRET assay
[28] = target: cAMP-dependent protein kinase catalytic subunit alpha (Homo sapiens) (UniProt P17612); test: Inhibition of PRKACA at 10 uM after 60 mins by TR-FRET assay
[29] = target: Glycogen synthase kinase-3 beta (Homo sapiens) (UniProt P49841); test: Inhibition of GSK3B at 10 uM after 60 mins by TR-FRET assay
Glycogen synthase kinase-3 beta (Homo sapiens), sequence (P49841 whole entry, looked up): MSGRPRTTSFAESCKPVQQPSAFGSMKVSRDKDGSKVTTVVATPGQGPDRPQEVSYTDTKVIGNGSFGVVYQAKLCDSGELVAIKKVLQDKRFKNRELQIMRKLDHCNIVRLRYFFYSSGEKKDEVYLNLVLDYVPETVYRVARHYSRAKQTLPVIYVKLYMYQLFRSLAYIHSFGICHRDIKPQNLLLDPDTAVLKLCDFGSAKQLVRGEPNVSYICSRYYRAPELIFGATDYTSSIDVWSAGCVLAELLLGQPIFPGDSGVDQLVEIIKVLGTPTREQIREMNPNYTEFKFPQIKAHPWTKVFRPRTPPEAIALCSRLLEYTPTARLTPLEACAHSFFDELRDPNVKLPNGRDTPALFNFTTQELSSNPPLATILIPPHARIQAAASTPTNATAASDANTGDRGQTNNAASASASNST

[30] = target: Protein-tyrosine kinase 2-beta (Homo sapiens) (UniProt Q14289); test: Inhibition of PTK2B at 10 uM after 60 mins by TR-FRET assay

T1 sequence (P28482 whole entry): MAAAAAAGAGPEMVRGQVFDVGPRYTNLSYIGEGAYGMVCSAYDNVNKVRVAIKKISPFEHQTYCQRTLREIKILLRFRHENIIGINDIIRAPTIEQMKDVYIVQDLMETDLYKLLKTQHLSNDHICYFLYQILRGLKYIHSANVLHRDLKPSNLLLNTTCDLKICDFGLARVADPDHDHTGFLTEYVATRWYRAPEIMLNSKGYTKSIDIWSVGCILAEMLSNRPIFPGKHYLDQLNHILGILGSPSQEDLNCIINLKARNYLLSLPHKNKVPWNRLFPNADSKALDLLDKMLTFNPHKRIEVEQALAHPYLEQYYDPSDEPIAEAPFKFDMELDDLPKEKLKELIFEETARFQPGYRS

Structure (SMILES)	IC50 [1] [µM]	inhibition [2] [%]	inhibition [3] [%]	inhibition [4] [%]	inhibition [5] [%]	inhibition [6] [%]	inhibition [7] [%]	inhibition [8] [%]	IC50 [9] [µM]	inhibition [10] [%]	inhibition [11] [%]	inhibition [12] [%]	inhibition [13] [%]	inhibition [14] [%]	inhibition [15] [%]	inhibition [16] [%]	inhibition [17] [%]	inhibition [18] [%]	inhibition [19] [%]	inhibition [20] [%]	also measured
O=c1[nH]nc(-c2ccnc(NC3CCCCC3)c2)n1-c1ccc2ccccc2c1	> 50	5	2	8	1	-10	13	12	0.069	22	17	-1	-9	7	72	4	2	15	11	12	inhibition [21]: 8%; inhibition [22]: 1%; inhibition [23]: 4%; IC50 [24]: > 50 µM; inhibition [25]: -1%; inhibition [26]: 1%; inhibition [27]: 6%; inhibition [28]: 3%; inhibition [29]: 38%; inhibition [30]: -3%
O=c1n(C2CCOCC2)nc(-c2ccnc(NC3CCCCC3)c2)n1-c1ccc2ccccc2c1	> 50	4	7	3	7	-6	-3	8	0.097	19	32	0	-10	4	86	5	0	26	7	5	inhibition [21]: 26%; inhibition [22]: -1%; inhibition [23]: 10%; IC50 [24]: > 50 µM; inhibition [25]: 7%; inhibition [26]: 0%; inhibition [27]: 13%; inhibition [28]: 13%; inhibition [29]: 15%; inhibition [30]: -2%
O=c1n(Cc2ccncc2)nc(-c2ccnc(NC3CCCCC3)c2)n1-c1ccc2ccccc2c1	> 50	8	19	-3	1	9	-2	20	0.097	2	-5	-2	5	3	76	-2	3	0	-9	2	inhibition [21]: 7%; inhibition [22]: 5%; inhibition [23]: 3%; IC50 [24]: > 50 µM; inhibition [25]: 1%; inhibition [26]: 0%; inhibition [27]: 8%; inhibition [28]: 6%; inhibition [29]: 13%; inhibition [30]: 6%
O=c1n(Cc2ccccn2)nc(-c2ccnc(NC3CCOCC3)c2)n1-c1ccc2ccccc2c1	> 50	2	7	0	-10	-2	0	11	0.093	8	5	-5	-9	2	72	1	-6	5	7	10	inhibition [21]: 1%; inhibition [22]: -1%; inhibition [23]: -1%; IC50 [24]: > 50 µM; inhibition [25]: 4%; inhibition [26]: -2%; inhibition [27]: 1%; inhibition [28]: 2%; inhibition [29]: 7%; inhibition [30]: -7%
O=c1[nH]nc(-c2ccnc(NC3CCCOC3)c2)n1-c1ccc2ccccc2c1 (stereo not given)	22	4	10	15	12	4	0	23	0.13	38	79	0	-5	22	81	17	3	62	29	27	inhibition [21]: 70%; inhibition [22]: 1%; inhibition [23]: 37%; IC50 [24]: > 50 µM; inhibition [25]: 60%; inhibition [26]: 1%; inhibition [27]: 1%; inhibition [28]: 47%; inhibition [29]: 81%; inhibition [30]: 11%
O=c1[nH]nc(-c2ccnc(NC3CCOCC3)c2)n1-c1ccc2ccccc2c1	> 50	10	11	24	1	-3	16	32	0.25	11	13	3	-4	6	73	5	35	33	25	19	inhibition [21]: 14%; inhibition [22]: 5%; inhibition [23]: 11%; IC50 [24]: > 50 µM; inhibition [25]: 74%; inhibition [26]: 4%; inhibition [27]: 6%; inhibition [28]: 6%; inhibition [29]: 73%; inhibition [30]: 2%
